Data as given in EP4537820A1, “COMPOUND AND COMBINATIONS COMPRISING SAID COMPOUND TO IMPROVE IMMUNE RESPONSE” (Institut Gustave-Roussy, priority 2023, dated 2025).

Legend:
20S proteasome = system: T1, 20S proteasome; test: Thermal Shift Assay (nanoDSF) with 20S; assay type: binding, human; conditions: 20S 50nM, compound at 100X (5µM, 0,1% DMSO)
T1 construct: purified 20S proteasome from human erythrocytes; purchased Biotechne E-360-050; host or cells: human erythrocytes
Method: Thermal shift assay was carried out with nano differential scanning fluorimetry (nanoDSF) using the Tycho NT.6 from Nanotemper and was performed at the I2BC platform (Gif-sur-Yvette). Samples were prepared in a final volume of 25µL in a 96-well plate prior to be loaded on the Tycho capillaries. Proteins were diluted in activity buffer (20mM Tris-HCl pH 7.4 and 20mM NaCl). After optimisation, REGγ concentration was set to 500nM and 20S concentration to 50nM. Compounds concentrations were determined as ratios to protein concentration and to stay below 0,5% of DMSO; accordingly, compounds with REGγ were tested at 40X (20µM, 0,4% DMSO) and at 100X (5µM, 0,1% DMSO) with 20S. A thermal ramp was applied from 20 to 95°C and fluorescence was followed at 350nm and 330 nm, measuring intrinsic fluorescence of the proteins from tryptophan and tyrosine residues. Binding was detected as a shift in the inflection temperature (Ti) compared to the DMSO control.
To assess the efficacy of molecule 58 in directly binding to REGγ, inventors conducted a thermal shift assay (TSA). TSA leverages the property of proteins to undergo unfolding at specific temperatures, and the interaction with a ligand can alter the thermal stability, leading to a shift in the unfolding temperature. In their study, inventors examined how the compound 58 interacted with REGγ and monitored the change in melting temperature (ΔTm).

[1] = system: MCA205-Glob-SL8-intron cells; test: MHC-I expression, antigen presentation and PD-L1 surface expression by flow cytometry; assay type: cell-based, mouse; conditions: 24 hours
Method: 2×10^5 of MCA205-Glob-SL8-intron cells were plated in 6-well plates and incubated overnight. The next day cells were treated with different concentrations of drugs for 24h. After treatment, cells were harvested with trypsin before being stained with Zombie Aqua (#423102, Biolegend) and antibodies presented in Table 1 following the protocol provided by the supplier. Samples were acquired on a FACS LSRFortessa X20 (BD Biosciences) and data was analysed with FlowJo (V10) software (TreeStar, Inc.). Table 1: Panels of antibodies for the study of surface expression of MHC-I molecules and SIINFEKL presentation in MCA205-Glob-SL8-intron.
Inventors previously reported a novel and unexpected role of the REGγ-20S complex in the degradation of MHC-I peptides in cancer. In order to elucidate the potential impact of compound 58 on the REGγ-20S complex's modulation of antigenic peptide degradation, they treated mouse MCA205 cells stably expressing the globin-SL8-intron construct with increasing concentrations of compound 58 for 24 hours.
Additionally, they explored the impact of compound 58 on the expression of MHC-I on the surface of MCA205 cells stably expressing the globin-SL8-intron construct. After treating these cells with varying doses of compound 58 for 24 hours, they assessed the levels of murine MHC-I H2-K^b and H2-D^b using flow cytometry. The percentage of cells labeled positively for H2-K^b and H2-D^b in the treated conditions was compared to that in the DMSO control condition.
Furthermore, inventors investigated whether compound 58 had the capability to alter PD-L1 expression on the cell surface of treated tumor cells. To examine this, they exposed MCA205 cells stably expressing the globin-SL8-intron construct to varying concentrations of compound 58 for 24 hours and subsequently assessed PD-L1 expression levels via flow cytometry.

[2] = 5µm to 25 µM, compared to DMSO control

**Q.** Which results are given for Cc1ccc(N=Nc2ccc(C)cc2NC(=O)Nc2ccccc2F)cc1 [compound 58]?
**A.** change in melting temperature (ΔTm) (20S proteasome): no significant change in ΔTm; presentation of the SIINFEKL peptide (Kb-SIINFEKL complexes on the cell surface) ([1]; 25µM, 25-D1.16 antibody, compared to untreated cells): significant increase; expression of H2-D^b molecules on the cell surface [1, 2]: dose-dependent increase; expression of H2-K^b molecules on the cell surface [1, 2]: dose-dependent increase; PD-L1 expression on the cell surface ([1]; varying concentrations, dose-dependent manner): significantly increased PD-L1 expression
